Consider 37 molecules from patent US20220289657A1, “COMPOSITION FOR PREVENTING OR TREATING BACTERIAL INFECTIOUS DISEASE COMPRISING 4-GINGEROL DERIVATIVE COMPOUND AS ACTIVE INGREDIENT” (KOREA UNIVERSITY RESEARCH AND BUSINESS FOUNDATION, SEJONG …, priority 2019, published 2022).

The structures appear in SMILES notation. Marks after values point to notes of the source that are not given here.

This experiment concerns the target T1, RhlR (Pseudomonas aeruginosa, UniProt P54292).
T1 construct: expressed in transfected cells; host or cells: E. coli sdiA variant co-transformed with pJN105R and pSC11 (RhlA::lacZ)
Description: cell-based. The settings on record: footnotes not given; for Relative RhlR activity Antagonism: Table 2; for Relative RhlR activity Antagonism / remaining activity at 100 µM: 100 μM per Table 3, lower = stronger antagonism; for activity at 100 µM: read-out: Relative RhlR activity Agonism, Table 2, matches the 100 column of Table 3; for remaining activity at 100 µM: read-out: Relative RhlR activity Antagonism, Table 2. The protocol:
Escherichia coli (E. coli) DH5a includes LuxR homolog SdiA detecting endogenous AHL synthesized by other microbial species, particularly, BHL.
For RhlR reporter strain analysis, the present invention used pJN105R (RhlR expression plasmid), anspSC11 (RhlA::lacZ fusion plasmid) and an sdiA variant co-transformed with the two plasmids. 1% of an overnight-cultured reporter strain (OD 595 nm=1.0) supplemented with 10 μg/mL gentamicin and 50 μg/mL ampicillin was cultured in a Luria-Bertani (LB) medium (Difco, Detroit, Mich., USA) with a positive control or a compound (0-1000 μM) and BHL (0-10 μM) (Sigma-Aldrich) at 37° C. for 2 hours. 0.4% arabinose (Sigma-Aldrich) was reacted with the resulting product at 37° C. for 1.5 hours. β-galactosidase activity was evaluated using a Tropix plus kit (Applied Biosystems, CA, USA), and OD 595 nm and luminescence were measured using a VICTOR x5 multimode plate reader (PerkinElmer, Waltham, Mass., USA). Relative RhlR activity was quantified by measuring luminescence at OD 595 nm. In addition, for LasR reporter strain analysis, the present invention used pJN105L (LasR expression plasmid) and pSC11 (lasI::lacZ fusion plasmid), E. coli DH5a co-transformed with the two plasmids, and OdDHL (Sigma-Aldrich).

T1 sequence (P54292 whole entry): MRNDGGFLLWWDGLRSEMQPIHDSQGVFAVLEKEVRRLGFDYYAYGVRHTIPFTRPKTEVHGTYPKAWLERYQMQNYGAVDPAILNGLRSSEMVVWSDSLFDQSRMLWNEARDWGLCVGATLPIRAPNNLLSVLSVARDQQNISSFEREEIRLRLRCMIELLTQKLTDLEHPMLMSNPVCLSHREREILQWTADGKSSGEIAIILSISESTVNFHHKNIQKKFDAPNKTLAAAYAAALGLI

`CCCC(O)CC(=O)/C=C/c1ccccc1` (centres unmarked) [Compound 11b, (E)-5-Hydroxy-1-phenyloct-1-en-3-one]: the “Relative RhlR activity Antagonism” value is reported as 93* %, the activity at 100 µM stood at 4% and the remaining activity at 100 µM was 93%.

Turning to `CCCC(O)CC(=O)/C=C/c1cccc(O)c1` (centres unmarked) [Compound 11e, (E)-5-Hydroxy-1-(3-hydroxyphenyl)oct-1-en-3-one], the “Relative RhlR activity Antagonism” value is 78** %, the activity at 100 µM amounted to 2% and the remaining activity at 100 µM was determined as 78%.

On to `CCCC(O)CC(=O)CCc1ccc(F)c(F)c1` (centres unmarked) [Compound 12o, 1-(3,4-Difluorophenyl)-5-hydroxyoctan-3-one], for which the activity at 100 µM worked out at 1% and the remaining activity at 100 µM was 49%.

For the molecule `CCCC(O)CC(=O)CCc1ccc(O)c(OC)c1` (centres unmarked) [Compound 2, 5-Hydroxy-1-(4-hydroxy-3-methoxyphenyl)octan-3-one], the “Relative RhlR activity Antagonism” value is listed as 54** %, the activity at 100 µM was determined as 3% and the remaining activity at 100 µM amounted to 54%.

Consider `CCCC(O)CC(=O)CCc1ccc(O)cc1` (centres unmarked) [Compound 12d, 5-Hydroxy-1-(4-hydroxyphenyl)octan-3-one], for which the activity at 100 µM was 3% and the remaining activity at 100 µM turned out to be 64%.

On to `CCCC(O)CC(=O)CCc1cc(F)cc(OC)c1` (centres unmarked) [Compound 12r, 1-(3-Fluoro-5-methoxyphenyl)-5-hydroxyoctan-3-one], for which the activity at 100 µM was 3% and the remaining activity at 100 µM is 85%.

As for `CCCC(O)CC(=O)CCc1ccc(OC)c(OC)c1` (centres unmarked) [Compound 12l, 1-(3,4-Dimethoxyphenyl)-5-hydroxyoctan-3-one], the activity at 100 µM came out at 1% and the remaining activity at 100 µM was determined as 94%.

Consider `CCCC(O)CC(=O)CCc1ccc(O)c(F)c1` (centres unmarked) [Compound 12m, 1-(3-Fluoro-4-hydroxyphenyl)-5-hydroxyoctan-3-one], for which the activity at 100 µM stood at 1% and the remaining activity at 100 µM was found to be 73%.

On to `CCCC(O)CC(=O)/C=C/c1ccc(O)c(F)c1` (centres unmarked) [Compound 11m, (E)-1-(3-Fluoro-4-hydroxyphenyl)-5-hydroxyoct-1-en-3-one], for which the activity at 100 µM is 2% and the remaining activity at 100 µM was 60%.

Regarding `CCCC(O)CC(=O)CCc1ccc(F)cc1` (centres unmarked) [Compound 12g, 1-(4-Fluorophenyl)-5-hydroxyoctan-3-one], the activity at 100 µM worked out at 2% and the remaining activity at 100 µM amounted to 51%.

Take `CCCC(O)CC(=O)/C=C/c1ccc(OC)c(OC)c1` (centres unmarked) [Compound 11l, (E)-1-(3,4-Dimethoxyphenyl)-5-hydroxyoct-1-en-3-one]: the activity at 100 µM turned out to be 1% and the remaining activity at 100 µM was 69%.

For the molecule `CCCCC[C@@H](O)C#Cc1ccc(F)c(F)c1` [Compound 35b, (R)-1-(3,4-Difluorophenyl)oct-1-yn-3-ol], the activity at 100 µM amounted to 3% and the remaining activity at 100 µM was 72%.

Regarding `CCCC(O)CC(=O)CCc1ccc(N(C)C)cc1` (centres unmarked) [Compound 12j, 1-(4-(Dimethylamino)phenyl)-5-hydroxyoctan-3-one], the activity at 100 µM was determined as 1% and the remaining activity at 100 µM came out at 74%.

Consider `CCCCCC(O)/C=C/c1ccc(F)c(F)c1` (centres unmarked) [Compound 15a, (E)-1-(3,4-Difluorophenyl)oct-1-en-3-ol], for which the activity at 100 µM turned out to be 5% and the remaining activity at 100 µM worked out at 55%.

Consider `CCCCCCC(O)CC(=O)CCc1ccc(O)c(OC)c1` (centres unmarked) [Compound 5, 5-Hydroxy-1-(4-hydroxy-3-methoxyphenyl)undecan-3-one], for which the activity at 100 µM came out at 3% and the remaining activity at 100 µM is 83%.

As to `CCCC(O)CC(=O)/C=C/c1ccc(O)c(OCC)c1` (centres unmarked) [Compound 11n, (E)-1-(3-Ethoxy-4-hydroxyphenyl)-5-hydroxyoct-1-en-3-one], the activity at 100 µM was determined as 1% and the remaining activity at 100 µM was found to be 91%.

For `CCCCCC(O)/C=C\c1ccc(O)c(OC)c1` (centres unmarked) [Compound 25, (Z)-4-(3-Hydroxyoct-1-en-1-yl)-2-methoxyphenol], the “Relative RhlR activity Antagonism” value is reported as 79** %, the activity at 100 µM was 3% and the remaining activity at 100 µM turned out to be 79%.

Consider `CCCC(O)CC(=O)CCc1ccc(F)c(OC)c1` (centres unmarked) [Compound 12q, 1-(4-Fluoro-3-methoxyphenyl)-5-hydroxyoctan-3-one], for which the activity at 100 µM is 1% and the remaining activity at 100 µM came to 79%.

With `CCCC(O)CC(=O)/C=C/c1ccccc1C` (centres unmarked) [Compound 11i, (E)-5-Hydroxy-1-(o-tolyl)oct-1-en-3-one], the “Relative RhlR activity Antagonism” value is on record as 65** %, the activity at 100 µM is 2% and the remaining activity at 100 µM came to 65%.

Turning to `CCCC(O)CC(=O)/C=C/c1cc(F)cc(OC)c1` (centres unmarked) [Compound 11r, (E)-1-(3-Fluoro-5-methoxyphenyl)-5-hydroxyoct-1-en-3-one], the “Relative RhlR activity Antagonism” value was 74** %, the activity at 100 µM came out at 3% and the remaining activity at 100 µM is 74%.

As for `CCCCC[C@H](O)C#Cc1ccc(F)c(F)c1` [Compound 35c, (S)-1-(3,4-Difluorophenyl)oct-1-yn-3-ol], the activity at 100 µM turned out to be 4% and the remaining activity at 100 µM came to 67%.

`CCCC(O)CC(=O)CCc1ccc(Cl)cc1` (centres unmarked) [Compound 12h, 1-(4-Chlorophenyl)-5-hydroxyoctan-3-one]: the activity at 100 µM was found to be 2% and the remaining activity at 100 µM stood at 69%.

For `CCCCCC(O)/C=C/c1ccc(O)c(OC)c1` (centres unmarked) [Compound 15b, (E)-4-(3-Hydroxyoct-1-en-1-yl)-2-methoxyphenol], the “Relative RhlR activity Antagonism” value is given as 41** %, the activity at 100 µM is 2% and the remaining activity at 100 µM turned out to be 41%.

Regarding `CCCCCC(O)CCc1ccc(F)c(F)c1` (centres unmarked) [Compound 16a, 1-(3,4-Difluorophenyl)octan-3-ol], the activity at 100 µM turned out to be 5% and the remaining activity at 100 µM came out at 61%.

For `CCCC(O)CC(=O)/C=C/c1ccc(Cl)cc1` (centres unmarked) [Compound 11h, (E)-1-(4-Chlorophenyl)-5-hydroxyoct-1-en-3-one], the “Relative RhlR activity Antagonism” value is given as 64** %, the activity at 100 µM was determined as 1% and the remaining activity at 100 µM was found to be 64%.

For `CCCCCC(=O)CCc1ccc(O)c(OC)c1` [Compound 14b, 1-(4-Hydroxy-3-methoxyphenyl)octan-3-one], the “Relative RhlR activity Antagonism” value is listed as 49** %, the activity at 100 µM was determined as 2% and the remaining activity at 100 µM was 49%.

With `CCCCC(O)C#Cc1ccc(F)c(F)c1` (racemic) [Compound 34a, 1-(3,4-Difluorophenyl)hept-1-yn-3-ol], the activity at 100 µM is 4% and the remaining activity at 100 µM was 71%.

As for `CCCCCC(O)C#Cc1ccc(F)c(F)c1` (racemic) [Compound 35a, 1-(3,4-Difluorophenyl)oct-1-yn-3-ol], the activity at 100 µM turned out to be 3% and the remaining activity at 100 µM is 74%.

For `CCCC(O)CC(=O)CCc1ccc(O)c(OCC)c1` (centres unmarked) [Compound 12n, 1-(3-Ethoxy-4-hydroxyphenyl)-5-hydroxyoctan-3-one], the activity at 100 µM amounted to 1% and the remaining activity at 100 µM came to 98%.

For the molecule `CCCC(O)CC(=O)CCc1cccc(O)c1` (centres unmarked) [Compound 12e, 5-Hydroxy-1-(3-hydroxyphenyl)octan-3-one], the activity at 100 µM turned out to be 2% and the remaining activity at 100 µM amounted to 81%.

Regarding `CCCC(O)CC(=O)CCc1ccc(O)c(O)c1` (centres unmarked) [Compound 12k, 1-(3,4-Dihydroxyphenyl)-5-hydroxyoctan-3-one], the activity at 100 µM was 2% and the remaining activity at 100 µM was 47%.

As for `CCCC(O)CC(=O)/C=C/c1ccc(C)c(C)c1` (centres unmarked) [Compound 11p, (E)-1-(3,4-Dimethylphenyl)-5-hydroxyoct-1-en-3-one], the “Relative RhlR activity Antagonism” value is 72** %, the activity at 100 µM was 2% and the remaining activity at 100 µM was 72%.

With `CCCC[C@H](O)C#Cc1ccc(F)c(F)c1` [Compound 34c, (S)-1-(3,4-Difluorophenyl)hept-1-yn-3-ol], the activity at 100 µM was 2% and the remaining activity at 100 µM worked out at 64%.

As to `CCCCCCCC(O)CC(=O)CCc1ccc(O)c(OC)c1` (centres unmarked) [Compound 6, 5-Hydroxy-1-(4-hydroxy-3-methoxyphenyl)dodecan-3-one], the activity at 100 µM came out at 2% and the remaining activity at 100 µM is 90%.

Consider `CCCC(O)CC(=O)/C=C/c1ccc(F)c(OC)c1` (centres unmarked) [Compound 11q, (E)-1-(4-Fluoro-3-methoxyphenyl)-5-hydroxyoct-1-en-3-one], for which the “Relative RhlR activity Antagonism” value is recorded as 43** %, the activity at 100 µM came to 1% and the remaining activity at 100 µM stood at 43%.

Consider `CCCC(O)CC(=O)/C=C/c1ccc(F)cc1` (centres unmarked) [Compound 11g, (E)-1-(4-Fluorophenyl)-5-hydroxyoct-1-en-3-one], for which the “Relative RhlR activity Antagonism” value is on record as 33** %, the activity at 100 µM amounted to 1% and the remaining activity at 100 µM is 33%.

As for `CCCC(O)CC(=O)CCc1ccccc1` (centres unmarked) [Compound 12b, 5-Hydroxy-1-phenyloctan-3-one], the activity at 100 µM stood at 4% and the remaining activity at 100 µM was found to be 88%.
